Data from US20240270762A1, “PENICILLIN-BINDING PROTEIN INHIBITORS” (priority 2021, published 2024).
pIC50: −log10 of the molar value. Values after ≈ are worked out from the molar mass of the structure shown. Where two headings read alike, the source gives them in different places.

Assays:
[1] = tested on: N. gonorrhoeae WHO G; test: Liquid broth MIC in Fastidious broth; conditions: Neisseria gonorrhoeae
[2] = tested on: A. baumannii 1258916; test: microbe, parasite or virus in culture; assay type: cell-based, Acinetobacter baumannii; conditions: Acinetobacter baumannii, 1258916, read-out: MIC, A. baumannii 1258916
[3] = tested on: N. gonorrhoeae WHO M; test: Liquid broth MIC in Fastidious broth; conditions: Neisseria gonorrhoeae
[4] = tested on: P. aeruginosa CDC-0090; test: microbe, parasite or virus in culture; assay type: cell-based; conditions: Pseudomonas aeruginosa, CDC0090, read-out: Minimum inhibitory concentration, P. aeruginosa CDC-0090
[5] = tested on: A. baumannii CDC-0045; test: microbe, parasite or virus in culture; assay type: cell-based; conditions: Acinetobacter baumannii, CDC0045, read-out: MIC, A. baumannii CDC-0045
[6] = target: T1, PBP3 from Acinetobacter baumannii (ATCC 19606) (Acinetobacter baumannii, UniProt A0ABX6CK25); test: Bocillin-FL fluorescence polarization competition binding, A. baumannii PBP3; conditions: fluorescence polarization competition binding assay using Bocillin-FL; read-out: A. baumannii PBP3 Potency
T1 sequence (A0ABX6CK25 64-610): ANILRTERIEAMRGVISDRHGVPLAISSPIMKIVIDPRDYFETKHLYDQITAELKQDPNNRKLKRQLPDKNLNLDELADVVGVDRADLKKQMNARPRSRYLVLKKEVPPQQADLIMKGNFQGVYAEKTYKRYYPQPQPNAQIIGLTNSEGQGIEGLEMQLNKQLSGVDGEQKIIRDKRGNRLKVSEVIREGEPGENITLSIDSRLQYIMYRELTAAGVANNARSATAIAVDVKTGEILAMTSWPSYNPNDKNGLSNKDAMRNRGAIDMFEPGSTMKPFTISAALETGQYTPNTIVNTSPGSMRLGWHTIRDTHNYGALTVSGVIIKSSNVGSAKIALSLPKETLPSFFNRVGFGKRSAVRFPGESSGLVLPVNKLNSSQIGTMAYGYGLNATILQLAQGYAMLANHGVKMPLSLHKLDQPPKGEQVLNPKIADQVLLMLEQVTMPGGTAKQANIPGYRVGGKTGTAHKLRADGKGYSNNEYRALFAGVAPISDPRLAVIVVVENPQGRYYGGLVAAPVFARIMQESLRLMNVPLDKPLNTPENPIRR
Procedure, shortened: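 Purified PBPs pre-incubated with inhibitor (E. coli PBP3 1.5 μM, 30 min; P. aeruginosa PBP3 0.75 μM, A. baumannii PBP1a 1 μM and PBP3 0.2 μM, 15 min), then Bocillin-FL 0.1 μM (0.05 μM for PBP1a) added; FP read up to 60 min. EC50 = concentration halving bound Bocillin-FL.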

[7] = tested on: N. gonorrhoeae CDC-0197; test: Liquid broth MIC in Fastidious broth; conditions: Neisseria gonorrhoeae
[8] = tested on: A. baumannii ATCC 19606; test: microbe, parasite or virus in culture; assay type: cell-based; conditions: Acinetobacter baumannii, ATCC19606, read-out: MIC, A. baumannii ATCC 19606
[9] = read-out: Minimum Inhibitory Concentration (MIC), N. gonorrhoeae WHO G
[10] = read-out: Minimum Inhibitory Concentration (MIC), N. gonorrhoeae WHO M
[11] = CDC0197, read-out: Minimum Inhibitory Concentration (MIC), N. gonorrhoeae CDC-0197
[12] = read-out: Minimum Inhibitory Concentration, WHO G
[13] = read-out: Minimum Inhibitory Concentration, WHO M
[14] = CDC0197, read-out: Minimum Inhibitory Concentration, CDC-0197

| Structure (SMILES) | MIC [1, 9] | MIC [2] | MIC [3, 10] | MIC [4] | MIC [5] | pIC50 [6] | MIC [7, 11] | MIC [8] | MIC [1, 12] | MIC [3, 13] | MIC [7, 14] |
| --- | --- | --- | --- | --- | --- | --- | --- | --- | --- | --- | --- |
| O=C(NCCN1CCN(C(=O)NC(C(=O)N[C@H]2Cc3ccc(F)c(C(=O)O)c3OB2O)c2cc(F)c(O)c(O)c2Cl)C(=O)C1=O)c1ccncc1 (stereo partly drawn) [Example 216, (3R)-3-(2-(2-chloro-5-fluoro-3,4-dihydroxyphenyl)-2-(4-(2-(isonicotinamido)ethyl)-2,3-dioxopiperazine-1-carboxamido)acetamido)-7-fluoro-2-hydroxy-3,4-dihydro-2H-benzo[e][1,2]oxaborinine-8-carboxylic acid] | 4 to 8 µg/mL (≈ 5.47 to 10.9 µM) | 2 to 4 µg/mL (≈ 2.74 to 5.47 µM) | 4 to 8 µg/mL (≈ 5.47 to 10.9 µM) | < 1 µg/mL | 2 to 4 µg/mL (≈ 2.74 to 5.47 µM) | > 5.00 | 16 to 32 µg/mL (≈ 21.9 to 43.8 µM) | < 1 µg/mL | – | – | – |
| O=C(CN1CCN(C(=O)NC(C(=O)N[C@H]2Cc3ccc(F)c(C(=O)O)c3OB2O)c2cc(F)c(O)c(O)c2Cl)C(=O)C1=O)Nc1ccncc1 (stereo partly drawn) [Example 233, (3R)-3-(2-(2-chloro-5-fluoro-3,4-dihydroxyphenyl)-2-(2,3-dioxo-4-(2-oxo-2-(pyridin-4-ylamino)ethyl)piperazine-1-carboxamido)acetamido)-7-fluoro-2-hydroxy-3,4-dihydro-2H-benzo[e][1,2]oxaborinine-8-carboxylic acid] | 4 to 8 µg/mL (≈ 5.58 to 11.2 µM) | < 1 µg/mL | 4 to 8 µg/mL (≈ 5.58 to 11.2 µM) | < 1 µg/mL | 2 to 4 µg/mL (≈ 2.79 to 5.58 µM) | > 5.00 | 16 to 32 µg/mL (≈ 22.3 to 44.6 µM) | < 1 µg/mL | – | – | – |
| O=C(NCCCN1CCN(C(=O)NC(C(=O)N[C@H]2Cc3ccc(F)c(C(=O)O)c3OB2O)c2cc(F)c(O)c(O)c2Cl)C1=O)Nc1cccnc1 (stereo partly drawn) [Example 259, (3R)-3-(2-(2-chloro-5-fluoro-3,4-dihydroxyphenyl)-2-(2-oxo-3-(3-(3-(pyridin-3-yl)ureido)propyl)imidazolidine-1-carboxamido)acetamido)-7-fluoro-2-hydroxy-3,4-dihydro-2H-benzo[e][1,2]oxaborinine-8-carboxylic acid] | – | < 1 µg/mL | – | < 1 µg/mL | < 1 µg/mL | > 5.00 | – | < 1 µg/mL | 16 to 32 µg/mL (≈ 21.9 to 43.7 µM) | 4 to 8 µg/mL (≈ 5.47 to 10.9 µM) | 16 to 32 µg/mL (≈ 21.9 to 43.7 µM) |
| CN(CCN1CCN(C(=O)N[C@@H](C(=O)N[C@H]2Cc3ccc(F)c(C(=O)O)c3OB2O)c2cc(F)c(O)c(O)c2Cl)C(=O)C1=O)Cc1ccc(C(N)=O)cc1 [Example 226, (R)-3-((R)-2-(4-(2-((4-carbamoylbenzyl)(methyl)amino)ethyl)-2,3-dioxopiperazine-1-carboxamido)-2-(2-chloro-5-fluoro-3,4-dihydroxyphenyl)acetamido)-7-fluoro-2-hydroxy-3,4-dihydro-2H-benzo[e][1,2]oxaborinine-8-carboxylic acid] | 16 to 32 µg/mL (≈ 20.7 to 41.4 µM) | < 1 µg/mL | 16 to 32 µg/mL (≈ 20.7 to 41.4 µM) | < 1 µg/mL | < 1 µg/mL | > 5.00 | > 64 µg/mL | < 1 µg/mL | – | – | – |
| O=C(NCCS(=O)(=O)N1CCN(C(=O)NC(C(=O)N[C@H]2Cc3ccc(F)c(C(=O)O)c3OB2O)c2cc(F)c(O)c(O)c2Cl)C1=O)c1ccccc1 (stereo partly drawn) [Example 260, (3R)-3-(2-(3-((2-benzamidoethyl)sulfonyl)-2-oxoimidazolidine-1-carboxamido)-2-(2-chloro-5-fluoro-3,4-dihydroxyphenyl)acetamido)-7-fluoro-2-hydroxy-3,4-dihydro-2H-benzo[e][1,2]oxaborinine-8-carboxylic acid] | – | < 1 µg/mL | – | 2 to 4 µg/mL (≈ 2.61 to 5.22 µM) | < 1 µg/mL | > 5.00 | – | < 1 µg/mL | 16 to 32 µg/mL (≈ 20.9 to 41.8 µM) | 16 to 32 µg/mL (≈ 20.9 to 41.8 µM) | 16 to 32 µg/mL (≈ 20.9 to 41.8 µM) |
| O=C(CN1CCN(C(=O)NC(C(=O)N[C@H]2Cc3ccc(F)c(C(=O)O)c3OB2O)c2cc(F)c(O)c(O)c2Cl)C(=O)C1=O)Nc1ccccc1 (stereo partly drawn) [Example 232, (3R)-3-(2-(2-chloro-5-fluoro-3,4-dihydroxyphenyl)-2-(2,3-dioxo-4-(2-oxo-2-(phenylamino)ethyl)piperazine-1-carboxamido)acetamido)-7-fluoro-2-hydroxy-3,4-dihydro-2H-benzo[e][1,2]oxaborinine-8-carboxylic acid] | 16 to 32 µg/mL (≈ 22.4 to 44.7 µM) | 2 to 4 µg/mL (≈ 2.79 to 5.59 µM) | 4 to 8 µg/mL (≈ 5.59 to 11.2 µM) | 2 to 4 µg/mL (≈ 2.79 to 5.59 µM) | 8 to 16 µg/mL (≈ 11.2 to 22.4 µM) | > 5.00 | > 64 µg/mL | 2 to 4 µg/mL (≈ 2.79 to 5.59 µM) | – | – | – |
| O=C(NCCN1CCN(C(=O)NC(C(=O)N[C@H]2Cc3ccc(F)c(C(=O)O)c3OB2O)c2cc(F)c(O)c(O)c2Cl)C(=O)C1=O)c1cccc(O)c1 (stereo partly drawn) [Example 215, (3R)-3-(2-(2-chloro-5-fluoro-3,4-dihydroxyphenyl)-2-(4-(2-(3-hydroxybenzamido)ethyl)-2,3-dioxopiperazine-1-carboxamido)acetamido)-7-fluoro-2-hydroxy-3,4-dihydro-2H-benzo[e][1,2]oxaborinine-8-carboxylic acid] | 4 to 8 µg/mL (≈ 5.36 to 10.7 µM) | 2 to 4 µg/mL (≈ 2.68 to 5.36 µM) | 4 to 8 µg/mL (≈ 5.36 to 10.7 µM) | < 1 µg/mL | 8 to 16 µg/mL (≈ 10.7 to 21.5 µM) | > 5.00 | 16 to 32 µg/mL (≈ 21.5 to 42.9 µM) | < 1 µg/mL | – | – | – |
| O=C(NCCCN1CCN(C(=O)NC(C(=O)N[C@H]2Cc3ccc(F)c(C(=O)O)c3OB2O)c2cc(F)c(O)c(O)c2Cl)C(=O)C1=O)Nc1ccncc1 (stereo partly drawn) [Example 228, (3R)-3-(2-(2-chloro-5-fluoro-3,4-dihydroxyphenyl)-2-(2,3-dioxo-4-(3-(3-(pyridin-4-yl)ureido)propyl)piperazine-1-carboxamido)acetamido)-7-fluoro-2-hydroxy-3,4-dihydro-2H-benzo[e][1,2]oxaborinine-8-carboxylic acid] | 16 to 32 µg/mL (≈ 21.1 to 42.1 µM) | < 1 µg/mL | 16 to 32 µg/mL (≈ 21.1 to 42.1 µM) | 2 to 4 µg/mL (≈ 2.63 to 5.26 µM) | < 1 µg/mL | > 5.00 | > 64 µg/mL | < 1 µg/mL | – | – | – |
| O=C(NCCN1CCN(C(=O)NC(C(=O)N[C@H]2Cc3ccc(F)c(C(=O)O)c3OB2O)c2cc(F)c(O)c(O)c2Cl)C1=O)c1cccnc1 (stereo partly drawn) [Example 246, (3R)-3-(2-(2-chloro-5-fluoro-3,4-dihydroxyphenyl)-2-(3-(2-(nicotinamido)ethyl)-2-oxoimidazolidine-1-carboxamido)acetamido)-7-fluoro-2-hydroxy-3,4-dihydro-2H-benzo[e][1,2]oxaborinine-8-carboxylic acid] | – | < 1 µg/mL | – | 2 to 4 µg/mL (≈ 2.85 to 5.69 µM) | < 1 µg/mL | > 5.00 | – | < 1 µg/mL | 16 to 32 µg/mL (≈ 22.8 to 45.5 µM) | 16 to 32 µg/mL (≈ 22.8 to 45.5 µM) | > 64 µg/mL |
| O=C(NCCN1CCN(C(=O)NC(C(=O)N[C@H]2Cc3ccc(F)c(C(=O)O)c3OB2O)c2cc(F)c(O)c(O)c2Cl)C1=O)c1cccc(O)c1 (stereo partly drawn) [Example 244, (3R)-3-(2-(2-chloro-5-fluoro-3,4-dihydroxyphenyl)-2-(3-(2-(3-hydroxybenzamido)ethyl)-2-oxoimidazolidine-1-carboxamido)acetamido)-7-fluoro-2-hydroxy-3,4-dihydro-2H-benzo[e][1,2]oxaborinine-8-carboxylic acid] | 16 to 32 µg/mL (≈ 22.3 to 44.6 µM) | < 1 µg/mL | 16 to 32 µg/mL (≈ 22.3 to 44.6 µM) | < 1 µg/mL | 2 to 4 µg/mL (≈ 2.79 to 5.57 µM) | > 5.00 | > 64 µg/mL | < 1 µg/mL | – | – | – |
| O=C(NCCN1CCN(C(=O)NC(C(=O)N[C@H]2Cc3ccc(F)c(C(=O)O)c3OB2O)c2cc(F)c(O)c(O)c2Cl)C(=O)C1=O)c1nccs1 (stereo partly drawn) [Example 218, (3R)-3-(2-(2-chloro-5-fluoro-3,4-dihydroxyphenyl)-2-(2,3-dioxo-4-(2-(thiazole-2-carboxamido)ethyl)piperazine-1-carboxamido)acetamido)-7-fluoro-2-hydroxy-3,4-dihydro-2H-benzo[e][1,2]oxaborinine-8-carboxylic acid] | 16 to 32 µg/mL (≈ 21.7 to 43.4 µM) | 2 to 4 µg/mL (≈ 2.71 to 5.43 µM) | 16 to 32 µg/mL (≈ 21.7 to 43.4 µM) | < 1 µg/mL | 8 to 16 µg/mL (≈ 10.9 to 21.7 µM) | > 5.00 | 16 to 32 µg/mL (≈ 21.7 to 43.4 µM) | 2 to 4 µg/mL (≈ 2.71 to 5.43 µM) | – | – | – |
